# pIC50: −log10 of the molar value.
# Key:
# Experiment in all cases: biochemical
# [1] = target: T1, MMP-13 (Homo sapiens, UniProt P45452); conditions: recombinant human MMP-13, MCA peptide substrate 4 μM, pH 7.5, room temperature; read-out: MMP-13 IC50
# T1 construct: made in house; host or cells: baculovirus / insect cells
# Outline: (§1)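 Assay buffer 100 mM Tris-HCl, 100 mM NaCl, 10 mM CaCl2, pH 7.5. Activated MMP + inhibitor, 5 min RT; then methoxycoumarin peptide substrate, 4 μM final. Readout fluorescence; IC50 calculated.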
# [2] = target: T2, MMP-1 (Homo sapiens, UniProt P03956); conditions: recombinant human MMP-1, MCA peptide substrate 4 μM, pH 7.5, room temperature; read-out: MMP-1 IC50
# T2 construct: made in house; host or cells: transfected HT-1080 cells (provided by Dr. Harold Welgus, Washington University)
# T2 sequence (P03956 100-469): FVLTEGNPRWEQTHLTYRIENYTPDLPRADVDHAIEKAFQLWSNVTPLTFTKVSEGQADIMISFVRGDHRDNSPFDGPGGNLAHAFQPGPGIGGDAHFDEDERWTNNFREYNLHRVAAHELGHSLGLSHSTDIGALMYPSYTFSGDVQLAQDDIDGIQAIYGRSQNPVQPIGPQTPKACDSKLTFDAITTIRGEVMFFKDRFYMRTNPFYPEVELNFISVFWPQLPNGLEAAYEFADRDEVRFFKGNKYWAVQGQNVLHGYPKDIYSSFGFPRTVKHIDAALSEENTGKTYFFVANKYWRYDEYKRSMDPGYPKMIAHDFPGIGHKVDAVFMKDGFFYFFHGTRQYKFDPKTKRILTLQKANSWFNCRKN
# Outline: as §1
# [3] = target: T3, MMP-2 (Homo sapiens, UniProt P08253); conditions: recombinant human MMP-2, MCA peptide substrate 4 μM, pH 7.5, room temperature; read-out: MMP-2 IC50
# T3 construct: made in house; provided by Dr. Gregory Goldberg, Washington University
# T3 sequence (P08253 110-660): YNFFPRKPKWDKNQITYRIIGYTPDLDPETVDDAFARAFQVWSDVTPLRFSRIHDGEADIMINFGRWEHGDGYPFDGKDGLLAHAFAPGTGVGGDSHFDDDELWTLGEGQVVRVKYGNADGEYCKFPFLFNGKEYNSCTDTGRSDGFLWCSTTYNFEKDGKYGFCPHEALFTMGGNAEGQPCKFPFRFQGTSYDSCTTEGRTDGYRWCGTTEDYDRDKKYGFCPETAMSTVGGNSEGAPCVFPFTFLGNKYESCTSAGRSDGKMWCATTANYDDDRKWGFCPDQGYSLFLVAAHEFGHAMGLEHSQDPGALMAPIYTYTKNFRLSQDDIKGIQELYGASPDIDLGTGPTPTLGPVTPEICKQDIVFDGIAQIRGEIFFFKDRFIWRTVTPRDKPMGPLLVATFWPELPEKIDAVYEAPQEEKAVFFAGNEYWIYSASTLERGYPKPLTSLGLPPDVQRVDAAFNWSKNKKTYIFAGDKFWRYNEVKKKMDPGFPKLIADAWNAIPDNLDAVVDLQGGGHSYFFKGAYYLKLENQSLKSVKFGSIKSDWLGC
# Outline: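 APMA- or trypsin-activated human MMPs (MMP-1 from transfected HT-1080 cells, MMP-2 from transfected cells) preincubated with inhibitor in 1% DMSO at room temperature, then 4 μM MCA-Pro-Leu-Gly-Leu-Dpa-Ala-Arg-NH2 added in Tris/NaCl/CaCl2 buffer pH 7.5. IC50 from fluorescence reduction versus inhibitor concentration.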
SMILES,pIC50 [1],pIC50 [2],pIC50 [3]
CSc1nccc(N2CCC(C(=O)NO)(S(=O)(=O)c3ccc(Oc4ccc(OC(F)(F)F)cc4)cc3)CC2)n1 [Example 410],9.22,< 5.00,9.60
CCOc1cc(N2CCC(C(=O)NO)(S(=O)(=O)c3ccc(Oc4ccc(OC(F)(F)F)cc4)cc3)CC2)ncn1 [Example 411],9.70,< 5.00,> 10.00
CC(=N)N1CCC(C(=O)NO)(S(=O)(=O)c2ccc(Oc3ccc(OC(F)(F)F)cc3)cc2)CC1 [Example 412],9.40,5.19,9.70
O=C(NO)C1(S(=O)(=O)c2ccc(Oc3ccc(OC(F)(F)F)cc3)cc2)CCN(C2=NCCN2)CC1 [Example 413],8.96,5.10,9.52
O=C(NO)C1(S(=O)(=O)c2ccc(N3CCC(OCc4ccc(F)cc4C(F)(F)F)CC3)cc2)CCN(C2CC2)CC1 [Example 414],7.30,< 5.00,5.82
O=C(NO)C1(S(=O)(=O)c2ccc(N3CCC(Sc4ccc(OC(F)(F)F)cc4)CC3)cc2)CCN(C2CC2)CC1 [Example 415],7.30,< 5.00,6.61
O=CN1CCC(C(=O)NO)(S(=O)(=O)c2ccc(Oc3ccc(OC(F)(F)F)cc3)cc2)CC1 [Example 416],9.40,5.52,9.70
O=C(NO)C1(S(=O)(=O)c2ccc(N3CCC(OCc4ccc(OC(F)(F)F)cc4)CC3)cc2)CCN(C2CC2)CC1 [Example 418],8.15,< 5.00,5.85
O=C(NO)C1(S(=O)(=O)c2ccc(N3CCC(OCc4ccc(Cl)cc4)CC3)cc2)CCN(C2CC2)CC1 [Example 419],8.38,< 5.00,6.40
O=C(c1ccco1)N1CCC(C(=O)NO)(S(=O)(=O)c2ccc(N3CCC(OCc4ccc(F)cc4)CC3)cc2)CC1 [Example 424],8.26,< 5.00,7.10
O=C(c1ccco1)N1CCC(C(=O)NO)(S(=O)(=O)c2ccc(N3CCC(OCc4ccc(Cl)cc4)CC3)cc2)CC1 [Example 432],7.86,< 5.00,7.00
O=C(c1ccco1)N1CCC(C(=O)NO)(S(=O)(=O)c2ccc(N3CCC(OCc4ccc(F)c(C(F)(F)F)c4)CC3)cc2)CC1 [Example 433],6.35,< 5.00,5.46
O=C(c1ccco1)N1CCC(C(=O)NO)(S(=O)(=O)c2ccc(N3CCC(OCc4ccc(F)cc4C(F)(F)F)CC3)cc2)CC1 [Example 434],6.72,< 5.00,5.43
COc1ccc(C(=O)C2CCN(c3ccc(S(=O)(=O)C4(C(=O)NO)CCN(C(=O)OCc5ccccc5)CC4)cc3)CC2)cc1 [Example 435],8.23,< 5.00,5.82
COc1ccc(C(=O)C2CCN(c3ccc(S(=O)(=O)C4(C(=O)NO)CCN(c5ccncc5)CC4)cc3)CC2)cc1 [Example 438],8.85,< 5.00,6.80
CC(C)N1CCC(C(=O)NO)(S(=O)(=O)c2ccc(OC(F)(F)F)cc2)CC1 [Example 439],5.97,< 5.00,5.80
CCCCOC1CCN(c2ccc(S(=O)(=O)C3(C(=O)NO)CCN(C4CC4)CC3)cc2)CC1 [Example 440],7.57,< 5.00,6.62
COc1ccc(C(=O)C2CCN(c3ccc(S(=O)(=O)C4(C(=O)NO)CCN(C5CC5)CC4)cc3)CC2)cc1 [Example 441],8.22,< 5.00,6.38
CCCCOC1CCN(c2ccc(S(=O)(=O)C3(C(=O)NO)CCN(C(=O)OC(C)(C)C)CC3)cc2)CC1 [Example 442],8.00,< 5.00,6.68

SMILES,pIC50 [1],pIC50 [2],pIC50 [3]
CCCCOC1CCN(c2ccc(S(=O)(=O)C3(C(=O)NO)CCNCC3)cc2)CC1 [Example 443],7.05,< 5.00,5.66
COCCN1CCC(C(=O)NO)(S(=O)(=O)c2ccc(N3CCC(OCc4ccc(Cl)cc4)CC3)cc2)CC1 [Example 445],7.05,< 5.00,5.92
COCCN1CCC(C(=O)NO)(S(=O)(=O)c2ccc(N3CCC(OCc4ccc(F)c(C(F)(F)F)c4)CC3)cc2)CC1 [Example 446],6.57,< 5.00,5.15
COCCN1CCC(C(=O)NO)(S(=O)(=O)c2ccc(N3CCC(OCc4ccc(F)cc4C(F)(F)F)CC3)cc2)CC1 [Example 447],7.62,< 5.00,6.81
COCCN1CCC(C(=O)NO)(S(=O)(=O)c2ccc(N3CCC(OCc4ccc(F)cc4)CC3)cc2)CC1 [Example 448],8.62,< 5.00,6.27
CC(C)N1CCC(C(=O)NO)(S(=O)(=O)c2ccc(Oc3ccc(OC(F)(F)F)cc3)cc2)CC1 [Example 453],9.40,< 5.00,7.46
O=C(NO)C1(S(=O)(=O)c2ccc(N3CCc4ccccc4C3)cc2)CCN(C2CC2)CC1 [Example 455],8.20,< 5.00,7.57
C#CCN1CCC(C(=O)NO)(S(=O)(=O)c2ccc(S(=O)(=O)c3ccccc3)cc2)CC1 [Example 457],5.74,< 5.00,5.57
CC1CC(C)CN(C(=O)C2CCN(c3ccc(S(=O)(=O)C4(C(=O)NO)CCN(C(C)C)CC4)cc3)CC2)C1 (stereo not drawn) [Example 458],6.68,< 5.00,5.68
O=C(NO)C1(S(=O)(=O)c2ccc(N3CCC([S+]([O-])c4ccccc4)CC3)cc2)CCN(C2CC2)CC1 (stereo not drawn) [Example 459],6.87,< 5.00,5.51
CC(C)N1CCC(C(=O)NO)(S(=O)(=O)c2ccc(N3CCC(SCc4ccc(OC(F)(F)F)cc4)CC3)cc2)CC1 [Example 462],8.54,< 5.00,7.10
COc1cc2c(cc1OC)CN(c1ccc(S(=O)(=O)C3(C(=O)NO)CCN(C4CC4)CC3)cc1)CC2 [Example 464],6.92,< 5.00,6.40
O=C(Nc1cccnc1)OC1CCN(c2ccc(S(=O)(=O)C3(C(=O)NO)CCOCC3)cc2)CC1 [Example 465],7.10,< 5.00,6.43
O=C(NO)C1(S(=O)(=O)c2ccc(N3CC[C@@H](OCc4ccc(OC(F)(F)F)cc4)C3)cc2)CCOCC1 [Example 467],7.57,< 5.00,6.85
N#Cc1ccc(OC2CCN(c3ccc(S(=O)(=O)C4(C(=O)NO)CCOCC4)cc3)CC2)cc1 [Example 469],9.10,< 5.00,7.92
CC(=O)c1ccc(OC2CCN(c3ccc(S(=O)(=O)C4(C(=O)NO)CCOCC4)cc3)CC2)cc1 [Example 470],6.85,< 5.00,5.70
CC(=O)c1ccc(OC2CCN(c3ccc(S(=O)(=O)C4(C(=O)NO)CCOCC4)cc3)CC2)c(Cl)c1 [Example 471],5.62,< 5.00,< 5.00
CCOCc1ccc(COC2CCN(c3ccc(S(=O)(=O)C4(C(=O)NO)CCOCC4)cc3)CC2)cc1 [Example 472],8.40,< 5.00,6.70

# — US6750228B1, “Aromatic sulfone hydroxamic acid metalloprotease inhibitor” (priority 1997, dated 2004)
